Experimental data as given in ChEMBL document CHEMBL1817657, “Block of the hERG channel by bupivacaine: Electrophysiological and modeling insights towards stereochemical optimization” (Eur J Med Chem, 2011).
Counter-ions that a name gives are not always drawn.

How the values were obtained:
Format in all cases: cell-based
[1] = target: T1, Voltage-gated inwardly rectifying potassium channel KCNH2 (Homo sapiens, UniProt Q12809); assay: Inhibition of wild-type human ERG channel expressed in HEK293 cells assessed as blockade of potassium tail current by whole-cell patch clamp technique
[2] = target: T2, Voltage-gated inwardly rectifying potassium channel KCNH2 (Homo sapiens, UniProt Q12809, Y652A); assay: Inhibition of human ERG Y652A mutant channel expressed in HEK293 cells assessed as blockade of potassium tail current by whole-cell patch clamp technique
[3] = target: Voltage-gated inwardly rectifying potassium channel KCNH2 (Homo sapiens, UniProt Q12809, F656A); assay: Inhibition of human ERG F656A mutant channel expressed in HEK293 cells assessed as blockade of potassium tail current by whole-cell patch clamp technique
[4] = target: T1, Voltage-gated inwardly rectifying potassium channel KCNH2; assay: Inhibition of wild-type human ERG channel expressed in CHO cells by whole-cell patch clamp technique
[5] = target: T2, Voltage-gated inwardly rectifying potassium channel KCNH2; assay: Inhibition of human ERG Y652A mutant channel expressed in CHO cells by whole-cell patch clamp technique
[6] = system: HEK293; assay: Ratio IC50 for human ERG F656A mutant channel expressed in HEK293 cells to IC50 for wild-type human ERG channel expressed in HEK293 cells
[7] = target: Voltage-gated inwardly rectifying potassium channel KCNH2 (Homo sapiens, UniProt Q12809, V659A); assay: Inhibition of human ERG V659A mutant channel expressed in HEK293 cells assessed decrease in blockade of potassium tail current at 1 mM by whole-cell patch clamp technique; conditions: hek293, 1000 µM
[8] = system: HEK293; assay: Ratio IC50 for human ERG Y652A mutant channel expressed in HEK293 cells to IC50 for wild-type human ERG channel expressed in HEK293 cells

SMILES | IC50 [1] [µM] | IC50 [2] [µM] | IC50 [3] [µM] | IC50 [4] [µM] | IC50 [5] [µM] | Ratio IC50 [6] | inhibition (INH) [7] | Ratio IC50 [8]
CCCCN1CCCC[C@@H]1C(=O)Nc1c(C)cccc1C | 84 | 276 | 758 |  |  |  |  | 
CCCCN1CCCCC1C(=O)Nc1c(C)cccc1C.Cl (racemic) [BUPIVACAINE HYDROCHLORIDE] | 32 | 265 | 866 | 22 | 95 | 30 | Active | 10
CCCCN1CCCC[C@H]1C(=O)Nc1c(C)cccc1C [LEVOBUPIVACAINE HYDROCHLORIDE] | 13 | 278 | 1010 | 13 | 83 |  |  | 
